In PubChem BioAssay (NCI):
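Step 1: Grow cells in 96-well plates. Step 2: Expose to compound for 48 hours at 5 concentrations. Step 3: Interpolate endpoints linearly; if unreached, use highest concentration. TGI marks complete inhibition of growth.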

Columns and labels:
Experiment in all cases: NCI tumour cell line growth inhibition, 48 h
EKVX NSCLC = system: EKVX NSCLC
A549 NSCLC = system: A549 NSCLC
A498 renal = system: A498 renal
MDA-N = system: MDA-N
SW-620 colon = system: SW-620 colon
SK-MEL-5 melanoma = system: SK-MEL-5 melanoma
NCI-H23 lung = system: NCI-H23 lung
SF-295 CNS = system: SF-295 CNS
M14 melanoma = system: M14 melanoma
ACHN renal = system: ACHN renal
HS 578T breast = system: HS 578T breast
MDA-MB-231 breast = system: MDA-MB-231 breast
NCI-H522 lung = system: NCI-H522 lung
UACC-62 melanoma = system: UACC-62 melanoma
CCRF-CEM leukemia = system: CCRF-CEM leukemia
MALME-3M melanoma = system: MALME-3M melanoma
TK-10 renal = system: TK-10 renal
HT29 colon = system: HT29 colon
SK-OV-3 ovarian = system: SK-OV-3 ovarian
K-562 leukemia = system: K-562 leukemia
NCI/ADR-RES ovarian = system: NCI/ADR-RES ovarian
NCI-H460 lung = system: NCI-H460 lung
PC-3 prostate = system: PC-3 prostate
HL-60(TB) leukemia = system: HL-60(TB) leukemia
RPMI-8226 leukemia = system: RPMI-8226 leukemia
MDA-MB-435 = system: MDA-MB-435
786-0 renal = system: 786-0 renal
HOP-92 NSCLC = system: HOP-92 NSCLC
UO-31 renal = system: UO-31 renal
COLO 205 colon = system: COLO 205 colon
OVCAR-8 ovarian = system: OVCAR-8 ovarian
HCC-2998 colon = system: HCC-2998 colon
RXF 393 renal = system: RXF 393 renal
SNB-75 CNS = system: SNB-75 CNS
LOX IMVI melanoma = system: LOX IMVI melanoma
OVCAR-4 ovarian = system: OVCAR-4 ovarian
OVCAR-5 ovarian = system: OVCAR-5 ovarian
IGROV1 ovarian = system: IGROV1 ovarian
SR leukemia = system: SR leukemia
KM12 colon = system: KM12 colon
OVCAR-3 ovarian = system: OVCAR-3 ovarian
BT-549 breast = system: BT-549 breast
MOLT-4 leukemia = system: MOLT-4 leukemia
DU-145 prostate = system: DU-145 prostate
NCI-H226 lung = system: NCI-H226 lung
HOP-62 NSCLC = system: HOP-62 NSCLC
SN12C renal = system: SN12C renal
SK-MEL-28 melanoma = system: SK-MEL-28 melanoma
SF-268 CNS = system: SF-268 CNS
HCT-15 colon = system: HCT-15 colon
SF-539 CNS = system: SF-539 CNS
U251 CNS = system: U251 CNS
SNB-19 CNS = system: SNB-19 CNS
UACC-257 melanoma = system: UACC-257 melanoma
T-47D breast = system: T-47D breast
MCF7 breast = system: MCF7 breast
SK-MEL-2 melanoma = system: SK-MEL-2 melanoma
HCT-116 colon = system: HCT-116 colon
CAKI-1 renal = system: CAKI-1 renal

Measured: TGI

O=C(Nn1c(-c2ccccc2)nc2ccccc2c1=O)c1ccc([N+](=O)[O-])cc1
> 100 µM: EKVX NSCLC | A549 NSCLC | A498 renal | MDA-N | SW-620 colon | SK-MEL-5 melanoma | NCI-H23 lung | SF-295 CNS | M14 melanoma | ACHN renal | HS 578T breast | MDA-MB-231 breast | NCI-H522 lung | UACC-62 melanoma | CCRF-CEM leukemia | MALME-3M melanoma | TK-10 renal | HT29 colon | SK-OV-3 ovarian | K-562 leukemia | NCI/ADR-RES ovarian | NCI-H460 lung | PC-3 prostate | HL-60(TB) leukemia | RPMI-8226 leukemia | MDA-MB-435 | 786-0 renal | HOP-92 NSCLC | UO-31 renal | COLO 205 colon | OVCAR-8 ovarian | HCC-2998 colon | RXF 393 renal | SNB-75 CNS | LOX IMVI melanoma | OVCAR-4 ovarian | OVCAR-5 ovarian | IGROV1 ovarian | SR leukemia | KM12 colon | OVCAR-3 ovarian | BT-549 breast | MOLT-4 leukemia | DU-145 prostate | NCI-H226 lung | HOP-62 NSCLC | SN12C renal | SK-MEL-28 melanoma | SF-268 CNS | HCT-15 colon | SF-539 CNS | U251 CNS | SNB-19 CNS | UACC-257 melanoma | T-47D breast | MCF7 breast

N#Cc1nc(N)c(C#N)[nH]1
> 100 µM: EKVX NSCLC | A549 NSCLC | A498 renal | MDA-N | SW-620 colon | SK-MEL-5 melanoma | NCI-H23 lung | SF-295 CNS | M14 melanoma | ACHN renal | HS 578T breast | MDA-MB-231 breast | NCI-H522 lung | UACC-62 melanoma | CCRF-CEM leukemia | MALME-3M melanoma | TK-10 renal | HT29 colon | SK-OV-3 ovarian | K-562 leukemia | NCI/ADR-RES ovarian | NCI-H460 lung | PC-3 prostate | HL-60(TB) leukemia | RPMI-8226 leukemia | MDA-MB-435 | 786-0 renal | HOP-92 NSCLC | UO-31 renal | COLO 205 colon | OVCAR-8 ovarian | HCC-2998 colon | RXF 393 renal | SK-MEL-2 melanoma | SNB-75 CNS | LOX IMVI melanoma | OVCAR-4 ovarian | OVCAR-5 ovarian | IGROV1 ovarian | SR leukemia | KM12 colon | OVCAR-3 ovarian | BT-549 breast | MOLT-4 leukemia | HCT-116 colon | DU-145 prostate | NCI-H226 lung | HOP-62 NSCLC | SN12C renal | SK-MEL-28 melanoma | SF-268 CNS | CAKI-1 renal | HCT-15 colon | SF-539 CNS | U251 CNS | SNB-19 CNS | UACC-257 melanoma | T-47D breast | MCF7 breast
